Results reported in patent publication US20220401385A1, “Combination Therapy Based on PD-1 Signaling Inhibitors” (Kyoto University, priority 2019, published 2022).
Entries after “also recorded” stand apart in the source; their conditions may differ.

Columns and labels:
[1] = tested on: LLC cells; test: LLC tumor model; type: in vivo, C57BL/6 mice; settings: SPD 4 mg/kg + PD-L1 antibody
Protocol: FIG. 2-2 a-b) MethA or CT26 cells were intradermally inoculated into BALB/c mice. Ten days after inoculation, PD-L1 antibody (2 mg/kg), PD-L1 antibody+SPD (1 mg/kg for Meth A, 4 mg/kg for CT26) or SPD alone was administered. c) LLC cells were intradermally inoculated into C57BL/6 mice. Ten days after inoculation, mice were treated in the same manner as described in a-b) above. SPD was administered at 4 mg/kg. d) MC38 cells were inoculated into C57BL/6 Rag2^−/− mice. Ten days after inoculation, mice were treated in the same manner as described in a-b) above. SPD was administered at 5 mg/kg. Tumor growth curve and survival curve are shown.

[2] = tested on: CD44 high CD8+ T cells; test: Cell proliferation by 3H uptake in vitro, CD44 high cells; type: cell-based, mice; settings: SPD 0.2 μM, 24 hours
Protocol: (§1) FIG. 4 CD8^+ T cells were isolated from the spleen of mice without tumor inoculation, and further isolated into CD44^+ (CD44 high) and CD44^− (CD44 low) cell populations. a) CD44 low cells were simulated with CD3/CD28 antibody beads and SPD (0.2 μM). After 30 minutes, 1 hour, 2 hours and 72 hours, OCR was measured with a Seahorse analyzer. b) At the same time, total ATP production and glycolytic pathway-derived or mitochondrial activity-derived ATP production were calculated at 30-minute, 1-hour and 2-hour. c) CD44 low cells (2×10^5 cells) were stimulated with CD3/CD28 antibody beads and SPD (0.2 μM). After 24 hours, cell proliferation was examined by means of 3H uptake. d) Spare respiratory capacity (SRC) was calculated from the OCR measurement after 72 hours in a), and results with and without SPD were compared. e) CD44 low cells were stimulated with CD3/CD28 antibody beads and SPD (0.2 μM). After 24 hours, frequencies between apoptotic and viable cells were calculated by PI and Annexin staining. f-j) CD44 high cells were analyzed under the same conditions and by the same methods as described in a-e) above. As regards statistical analysis, t-test was used for comparison of two groups, and ANOVA was used for comparison of three or more groups. * p<0.05, ** p<0.01, *** p<0.001, **** p<0.0001.

[3] = tested on: CD44 low CD8+ T cells; test: PI and Annexin apoptosis assay, CD44 low cells; type: cell-based, mice; settings: in the presence of SPD 0.2 μM
Protocol: as §1, with “[…] All flow cytometry experiments were performed on FACS Canto II (BD Biosciences)” for “As regards statistical analysis, t-test was used for comparison of two groups,”, “analyzed using FlowJo software (FLOWJO, LLC). […]” for “ANOVA was used for comparison of three or more groups. * p<0.05, ** p<0.01, *** p<0.001, **** p<0.0001.”

[4] = tested on: CD8+ T cells; test: Tumor-infiltrating CD8+ T cells in aged MC38 mice; type: in vivo; settings: 56-week old mice; combination with SPD; 13 days after tumor inoculation
Protocol: FIG. 7 MC38 cells (5×10^5) were intradermally inoculated into 56-week old mice, which were treated along with the treatment schedule described in FIG. 1. PD-L1 antibody (2 mg/kg) and SPD (2 mg/kg) were used. a) Tumor growth curve and survival curve are shown. b) The frequency of CD8^+ T cells among lymphocytes infiltrating into tumor (in CD45^+ gate) and the absolute number of CD8^+ T cells per mg tumor 13 days after tumor inoculation are shown. c) CD8^+ T cells were isolated from spleen cells on the same schedule as b) and cultured for 20 hours under the stimulation with CD3/CD28. Cell proliferation was examined by means of ^3H uptake. d) CD8^+ T cells were isolated from draining lymph nodes on the same schedule as b) and glycolytic pathway-derived or mitochondrial metabolism-derived ATP production was calculated by Seahorse. e) Spare respiratory capacity (SRC) was also calculated in the experiment (d).
It is known from mouse model experiments that the effect of PD-1 inhibitory antibody therapy decreases in aged mice due to their decreased immunity. […] CD8^+ T cells were isolated from draining lymph nodes 13 days after tumor inoculation and glycolytic pathway-derived or mitochondrial metabolism-derived ATP production was calculated by Seahorse. Spare respiratory capacity (SRC) was also calculated. […]

With `NCCCCNCCCN` [SPD, spermidine] the “antitumor effect of PD-1 inhibitory antibody with SPD” value [1] was “exhibit the antitumor effect”, the cell proliferation [2] was “not found to increase” and the apoptotic cells [3] was “decreased”. For the same compound, the viable cells [3] was “increased; also recorded: significantly high” and the “number of CD8+ T cells in lymphocytes infiltrating into tumor” value [4] was “increase”.
